Measured values published in PubChem BioAssay (NCI).
Where “and” joins values, the source holds several entries; their conditions need not be identical. Identical values can stand only once.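 Briefly, cells in 96-well plates were exposed to five compound concentrations for 48 h, and endpoints were estimated by linear interpolation. The concentration for 50% growth inhibition is given as GI50. At the TGI there is no net growth.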

Tests used:
Test in all cases: NCI tumour cell line growth inhibition, 48 h
[1] = tested on: CAKI-1 renal
[2] = tested on: CCRF-CEM leukemia
[3] = tested on: EKVX NSCLC
[4] = tested on: HCC-2998 colon
[5] = tested on: MALME-3M melanoma
[6] = tested on: OVCAR-3 ovarian
[7] = tested on: OVCAR-5 ovarian
[8] = tested on: SK-MEL-2 melanoma
[9] = tested on: SK-MEL-5 melanoma
[10] = tested on: SR leukemia

SMILES	TGI [1]	TGI [2]	TGI [3]	TGI [4]	TGI [5]	TGI [6]	TGI [7]	TGI [8]	TGI [9]	TGI [10]	GI50 [2] [µM]	GI50 [4]	GI50 [9]	GI50 [1] [µM]	GI50 [3]	GI50 [5]	GI50 [6]	GI50 [7]	GI50 [8]	GI50 [10] [µM]
CN(C)CC(/C(Cc1ccccc1)=N\NC(=O)C[n+]1ccccc1)c1ccccc1 (configuration not stated)	> 100 µM	> 100 µM	> 100 µM	> 100 µM	> 100 µM	> 100 µM	> 100 µM	> 100 µM	> 100 µM	> 100 µM										
Cc1nc2ccc(CN(C)c3ccc(C(=O)N[C@@H](CCC(=O)O)C(=O)O)s3)cc2c(=O)[nH]1	> 100 µM	> 100 µM	> 100 µM	> 100 µM	> 100 µM	> 100 µM	> 100 µM	> 100 µM	> 100 µM	> 100 µM	0.027	< 0.01 µM	0.173 µM							
OCCOc1ccc(-c2cc(-c3ccccn3)nc(-c3ccccn3)c2)cc1	17.7 µM	40.4 µM	> 100 µM	> 18.4 µM	17.5 µM	6.67 µM	12.1 µM	3.48 µM	8.54 µM	11.7 µM										
CC1=CC2CC(C)=C(CC[C@]3(C)CC[C@H]([C@@H](C)C(=O)O)OO3)C(C)(C)C2CC1 (some centres not stated)	2.76 µM	0.493 µM	3.64 µM	0.818 µM	2.02 µM	2.99 µM	3.8 µM	3.09 µM	2.52 µM	0.382 µM										
CC/C(Cc1ccccc1)=C(\c1ccc(OCCN2CCCCCC2)cc1)c1ccc(OC(=O)NCc2ccccc2)cc1	10.5 µM	5.72 µM	14.1 µM	8.05 µM	1.94 µM	7.13 µM	12.8 µM	17.7 µM	2 µM	2.2 µM	1.56	2.01 µM	1 µM	4.52	6.29 µM	0.951 µM	1.86 µM	6.2 µM	8.65 µM	0.821
CC(=O)C1=C(O)C=C2Oc3c(C(=O)/C=C/c4cc(C(F)(F)F)cc(C(F)(F)F)c4)c(O)c(C)c(O)c3[C@]2(C)C1=O	4.83 µM	3.82 µM	6.44 µM	3.63 µM	2.42 µM	2.27 µM	4.46 µM	1.27 µM	1.27 µM	3.32 µM	0.487	1.53 µM	0.444 µM	0.531	0.462 µM	0.513 µM	0.543 µM	0.757 µM	0.448 µM	0.44
CC1=NN(C(=O)c2ccccc2O)C(=O)/C1=C/c1ccc([N+](=O)[O-])cc1	> 30.8 µM		> 100 µM		> 100 µM	7.05 µM and 1.32 µM	> 100 µM		51.5 µM		0.259		2.21 µM	0.549	2.68 µM	0.895 µM	1.98 µM	2.62 µM	0.97 µM	5.04
Cc1ccc(C(=O)O/N=C2/CCCC/C2=C\c2ccccc2)cc1	> 100 µM	> 100 µM	> 100 µM	> 100 µM	> 100 µM	> 100 µM	> 100 µM	> 100 µM	> 100 µM	> 100 µM										
C1=C(c2ccccc2)CN(c2ccccc2)OC1	> 100 µM	> 100 µM	> 100 µM	> 100 µM	> 100 µM	> 100 µM	> 100 µM	> 100 µM		> 100 µM										
Nc1ncnc2c1ncn2C1OC(COP(=O)(O)CP(=O)(O)O)C(O)C1O (configuration not stated)	> 100 µM	> 100 µM	> 100 µM	> 100 µM	> 100 µM		> 100 µM	> 100 µM	> 100 µM	> 100 µM										
CCOc1ccccc1NC(=O)CCC(=O)OC	> 100 µM	> 66.7 µM	> 100 µM	> 100 µM	> 100 µM	> 100 µM	> 100 µM	> 100 µM	> 100 µM	> 100 µM										
COc1cccc2c1C(=O)c1c(O)c3c(c(O)c1C2=O)CC(O)(C(C)=O)CC3OC1CC(N)C(O)C(C)O1 (configuration not stated)	0.015 µg/mL	0.324 µg/mL	2.66 µg/mL	0.912 µg/mL	0.356 µg/mL	0.958 µg/mL	3.46 µg/mL	0.403 µg/mL	0.0525 µg/mL	0.152 µg/mL		0.243 µg/mL	0.0193 µg/mL		0.191 µg/mL	0.0663 µg/mL	0.0426 µg/mL	0.0674 µg/mL	0.102 µg/mL	
O=C1OC(=O)c2c1c(-c1ccccc1)cn2-c1ccc(Cl)cc1		> 100 µM	> 100 µM	> 100 µM	> 100 µM	> 100 µM	> 100 µM	> 100 µM	27.9 µM	> 100 µM										
C#CCC[C@@H]1O[C@@]1(C)CC/C=C(\C)CC/C=C/C=O		64.8 µM	> 100 µM		48.3 µM	85.9 µM	> 100 µM	> 100 µM		> 100 µM										
Cc1nc2sccn2c1/C=C1/C(=O)Nc2ccccc21	> 100 µM	> 100 µM	> 100 µM	27.2 µM	> 100 µM	> 22.8 µM	> 100 µM	> 100 µM	> 62.9 µM	5.44 µM	5.01	1.13 µM	3.37 µM	2.98	27.6 µM	5.37 µM	2.36 µM	38.3 µM	5.73 µM	1.26
CC(C)=CCN=C(N)N	> 100 µM	> 100 µM	> 100 µM	> 100 µM	> 100 µM			> 100 µM	> 100 µM	83.6 µM										
COc1c2c(c3c(c1C1OC(C)[C@@H](C)O1)CC(C)(C)O3)C(=O)c1ccccc1C2=O (some centres not stated)	> 100 µM	53.2 µM	> 100 µM	> 100 µM	> 100 µM	> 100 µM	> 100 µM	> 100 µM	> 100 µM	68.2 µM										
COc1ccc(-c2[nH]ncc2-c2cc3c(c(OC)c2)OCC(=O)N3)cc1	> 63.3 µM	> 100 µM	> 33.7 µM	27 µM	99.1 µM	49 µM	> 100 µM	81.6 µM	12.8 µM	> 47.7 µM	0.398	1.14 µM	0.595 µM	0.556	0.675 µM	2.75 µM	0.36 µM	2.17 µM	0.564 µM	0.285
